Series [1] concerns hepatoma HepG2 cell line. The experiment in a line: MTT cytotoxicity assay, HepG2. The format is cell-based. As to conditions: 48 h, 0.1 to 100 μM. The method, then:
(§1) The potential general nephrotoxic, neurotoxic and hepatotoxic effects of selected H3R ligands 3d and 3h were investigated to determine their influence on the viability of normal HEK-293, neuroblastoma SH-SY5Y and hepatoma HepG2 cell lines by a colorimetric MTT reduction assay (Table 2).
(§2) Cultures of HEPG2 (ATCC-HB-8065 TM), HEK293 (ATCC CRL-1573 TM) and SHSY-5Y (ATCC CRL-2266 TM) cell lines were used as experimental models. Cells were maintained in a DMEM culture medium supplemented with 10% Foetal Bovine Serum (FBS), in an incubator at 37 °C and a humidified atmosphere with 5% CO2. Cells were seeded on culture plates, were allowed to grow for 24 h and then were treated with the synthesized compounds for 48 h with 100, 10, 1 and 0.1 µM concentrations. Negative cell death control, corresponding to untreated cells, and positive cell death control, corresponding to cells treated with 10% SDS, were maintained.
(§3) In a colorimetric MTT reduction assay, sterile 96-well culture plates were used. An amount of 2000–2500 cells per well were seeded. Upon completion of treatment, the culture medium was vacuum aspirated and washed with 1x PBS, and then 100 μL of 0.5 mg/mL MTT solution was added for a period of 4 h at 37 °C for formazan crystal formation. At the end of the 4 h, 100 μL of 10% SDS in HCl was added and kept overnight in an incubator at 37 °C to dissolve the formed crystals. The absorbance of each well was measured on the Synergy HTX microplate reader at 570 nm wavelength.
On the technique in general: Formazan colour is commonly taken as a measure of viable cells.

A short description of series [2]: MTT cytotoxicity assay, HepG2. As to conditions: human, HepG2 hepatoma cells, 0.1 to 100 μM. In kind it is cell-based. Here is the method: as §1, §2, §3
In series [3] the target is T1, human histamine H3R (Homo sapiens, UniProt Q9Y5N1).
T1 construct: expressed in transfected cells; host or cells: HEK-293 cells, stably expressing; membrane preparations
T1 sequence (Q9Y5N1 whole entry): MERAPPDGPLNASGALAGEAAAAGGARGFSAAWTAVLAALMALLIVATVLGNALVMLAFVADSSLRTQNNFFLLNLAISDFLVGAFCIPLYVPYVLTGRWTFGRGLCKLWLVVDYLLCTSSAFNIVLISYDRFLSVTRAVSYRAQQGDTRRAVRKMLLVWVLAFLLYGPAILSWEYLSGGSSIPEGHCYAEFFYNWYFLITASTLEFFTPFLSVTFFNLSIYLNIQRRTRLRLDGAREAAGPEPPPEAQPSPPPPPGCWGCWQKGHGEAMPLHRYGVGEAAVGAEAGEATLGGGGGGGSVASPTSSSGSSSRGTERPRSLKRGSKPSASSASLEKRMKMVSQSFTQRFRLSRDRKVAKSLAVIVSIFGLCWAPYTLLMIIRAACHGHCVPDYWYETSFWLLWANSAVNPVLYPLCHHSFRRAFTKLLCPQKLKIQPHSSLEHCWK
The experiment in a line: Human histamine H3 radioligand displacement ([3H]Nα-methylhistamine). The format is binding. In general terms: Loss of bound radioactivity is the signal in a displacement assay; it reports binding, not function.
Protocol: Radioligand displacement assays at the human histamine H3R were performed, as published previously [28]. […] At least three independent experiments of each compound in duplicate were conducted with 11 concentrations. Obtained data was analyzed with GraphPad Prism 7 (San Diego, CA, USA) using non-linear least squares fit and the equation “one site competition” (representative Figures given in the SI). Ki values were calculated according to the Cheng–Prusoff equation [29] and are reported as means with a 95% confidence interval. Statistical analyses were performed on the -logKi values and were converted to mean Ki values and a 95% confidence interval.

For series [4], the system named is HEK-293 cell line. Description: MTT cytotoxicity assay, HEK-293. In kind it is cell-based. To be noted: HEK-293, MTT, 48 h, 0.1 to 100 μM. The method, then: as §1, §2
(§4) In a colorimetric MTT reduction assay, sterile 96-well culture plates were used. An amount of 2000–2500 cells per well were seeded. Upon completion of treatment, the culture medium was vacuum aspirated and washed with 1x PBS, and then 100 μL of 0.5 mg/mL MTT solution was added for a period of 4 h at 37 °C for formazan crystal formation. […] The absorbance of each well was measured on the Synergy HTX microplate reader at 570 nm wavelength.

Series [5] is described as follows: MTT cytotoxicity assay, HEK-293. In kind it is cell-based. As to conditions: human, HEK-293 cells, HEK-293, MTT, 0.1 to 100 μM. The method, then: as §1, §2, §4
Series [6] relates to neuroblastoma SH-SY5Y cell line. Description: MTT cytotoxicity assay, SH-SY5Y. The format is cell-based. As to conditions: 48 h, 0.1 to 100 μM. The method, then: as §1, §2, §4
A short description of series [7]: MTT cytotoxicity assay, SH-SY5Y. The format is cell-based. As to conditions: human, SH-SY5Y neuroblastoma cells, 0.1 to 100 μM. The method, then:
as §1, §2, §4

Series [8] has as its target H3R. Details: method as in PMID 30025902, PMID 31176569. To be noted: H3R affinity of previous ligands; cited from earlier work.
[9] abbreviates: [3H]Nα-methylhistamine 2 nM, HEK-293 membranes stably expressing human H3R, mean [95% CI], at least three experiments in duplicate, read-out: Ki (nM) [95% CI nM].
Setting [10] is: restated in Table 3, read-out: Biological Activity Ki.

Here are results for eleven molecules from publication PMC9145483, “Substituted Purines as High-Affinity Histamine H3 Receptor Ligands” (Pharmaceuticals, 2022).

Where two headings read alike, the source gives them in different places.

As a reminder, the IC50 is the concentration that gives 50% inhibition. Consider `Clc1cccc(Cl)c1Cn1cnc2c(N3CCC(N4CCCCC4)CC3)ncnc21` [Compound 3d, 6-([1,4’-Bipiperidin]-1’-yl)-9-(2,6-dichlorobenzyl)-9H-purine], for which the concentration for half-maximal inhibition (IC50) in series [1] was 57.6 ± 12 µM. The IC50 at 48 h in series [2] is over 30 µM. For the same molecule, the Ki in series [3] (Table 3, read-out: Biological Activity −logKi (converted)) was 2.88 nM; in series [3] (setting [9]), 2.91 nM.

For the molecule `N#Cc1ccc(Cn2cnc3c(N4CCC(N5CCCCC5)CC4)nc(Cl)nc32)cc1` [Compound 3g, 4-((6-([1,4’-Bipiperidin]-1’-yl)-2-chloro-9H-purin-9-yl)methyl)benzonitrile], the Ki in series [3] (setting [9]) and in series [3] (setting [10]) was 77.8 nM in each case.

`Fc1ccc(Cn2cnc3c(N4CCC(N5CCCCC5)CC4)nc(Cl)nc32)cc1` [Compound 3e, 6-([1,4’-Bipiperidin]-1’-yl)-2-chloro-9-(4-fluorobenzyl)-9H-purine]: in series [3] (setting [9]), the Ki is 94.6 nM.

By Kd is commonly meant the free concentration of one partner at which half of the binding sites on the other are occupied at equilibrium, for simple one-to-one binding. In series [3] (radioligand used at 2 nM at human H3R), `CNCCc1cnc[nH]1` [[^3H]N^α-methylhistamine, reference compound] showed a Kd of 3.08 nM.

In the case of `N#Cc1ccc(Cn2cnc3c(N4CCC(N5CCCCC5)CC4)ncnc32)cc1` [Compound 3c, 4-((6-([1,4’-Bipiperidin]-1’-yl)-9H-purin-9-yl)methyl)benzonitrile], the Ki in series [3] (setting [9]) and in series [3] (setting [10]) was 28.8 nM in each case.

For the molecule `Clc1nc(N2CCC(N3CCCCC3)CC2)c2ncn(Cc3c(Cl)cccc3Cl)c2n1` [Compound 3h, 6-([1,4’-Bipiperidin]-1’-yl)-2-chloro-9-(2,6-dichlorobenzyl)-9H-purine], the IC50 in series [4] was 54.3 ± 3.54 µM; in series [1] it was 33.8 ± 4.29 µM; in series [6], 32.4 ± 4.75 µM. In addition, the half-maximal inhibitory concentration (IC50) at 48 h in series [5], in series [2] and in series [7] was over 30 µM in each case. Moreover, the figures for the Ki in series [3] (setting [9]) and in series [3] (setting [10]) were 5.51 nM and 5.5 nM, respectively.

Turning to `Clc1ccc(Cn2cnc3c(N4CCC(N5CCCCC5)CC4)nc(Cl)nc32)cc1` [Compound 3f, 6-([1,4’-Bipiperidin]-1’-yl)-2-chloro-9-(4-chlorobenzyl)-9H-purine], the Ki in series [3] (setting [9]) and in series [3] (setting [10]) was 44.6 nM in each case.

As to `Fc1ccc(Cn2cnc3c(N4CCC(N5CCCCC5)CC4)ncnc32)cc1` [Compound 3a, 6-([1,4’-Bipiperidin]-1’-yl)-9-(4-fluorobenzyl)-9H-purine], the Ki in series [3] (setting [9]) and in series [3] (setting [10]) was 105 nM throughout.

Regarding `Clc1nc(N2CCC(N3CCCCC3)CC2)c2ccn(Cc3c(Cl)cccc3Cl)c2n1` [III], in series [8], the Ki is 6 nM.

On to `Clc1ccc(Cn2cnc3c(N4CCC(N5CCCCC5)CC4)ncnc32)cc1` [Compound 3b, 6-([1,4’-Bipiperidin]-1’-yl)-9-(4-chlorobenzyl)-9H-purine], for which the Ki in series [3] (setting [9]) and in series [3] (setting [10]) was 39.4 nM in each case.

On to `Clc1nc(N2CCC(N3CCCCC3)CC2)c2ccn(Cc3ccc4ccccc4c3)c2n1` [II], for which the Ki in series [8] was 126 nM.
